Values quoted from earlier work in patent publication US20030036565A1, “Cancer chemopreventive agents” (WISCONSIN ALUMNI RESEARCH FOUNDATION, priority 2001, published 2003).

Tested on: phase II enzyme synthesis
Details: cultured murine hepatoma cells; Wilkinson and Clapper, 1997

| Compound | induction of phase II enzyme synthesis |
| --- | --- |
| COc1ccc(O)c(C(C)(C)C)c1 [BHA, butylated hydroxyanisole] | induce phase II enzyme synthesis |
| Cc1cc(C(C)(C)C)c(O)c(C(C)(C)C)c1 [BHT, butylated hydroxytoluene] | induce phase II enzyme synthesis |
| CC(C)(C)c1cc(O)ccc1O [TBHQ, tert-butylhydroquinone] | induce phase II enzyme synthesis |
| O=c1cc(-c2ccccc2)oc2ccc3ccccc3c12 [β-naphthoflavone] | induce phase II enzyme synthesis |
